Test results reported in patent US20060122106A1, “Prevention and/or treatment of inflammatory bowel disease using pyy or agonists thereof” (Amylin Pharmaceuticals, Inc, priority 2002, published 2006).

Test system: rat model of chronic colonic inflammation (colitis induced by TNBS)
Test: TNBS hapten-induced colitis model of inflammatory bowel disease (Example 1)
Assay type: in vivo
Details: for gross morphologic damage score index: male HSD rats, colitis by 30 mg/kg TNBS intracolonic, colon scored (0-5, Table 1) four days after induction, saline control 3.24±0.66, PYY[3-36] 900 μg/kg s.c. twice daily, Depo-Medrol 600 μg/kg i.m., 5-ASA 200 mg/kg intracolonic; for spleen weight (systemic immune suppression): rat, in vivo
Description: Animal preparation: 10-11 weeks old male HSD rats, ranging 250-300 grams, were housed in a 12:12 light:dark cycle, and allowed ad libitum access to a standard rodent diet (Teklad L M 485, Madison, Wis.) and water. The animals were fasted for 24 hours before the experiment. Procedure: A simple and reproducible rat model of chronic colonic inflammation has been previously described by Morris G P, et al., “Hapten-induced model of chronic inflammation and ulceration in the rat colon.” Gastroenterology. 1989; 96:795-803. […] Rats were anesthetized with 3% isofluorane and placed on a regulated heating pad set at 37° C. A gavage needle was inserted rectally into the colon 7 cm. The hapten trinitrobenzenesulfonic acid (TNBS) dissolved in 50% ethanol (v/v) was delivered into the lumen of the colon through the gavage needle at a dose of 30 mg/kg, in a total volume of 0.4-0.6 mL, as described in Mazelin, supra. Control groups received saline solution (NaCl 0.9%) intracolonically. Four days after induction of colitis, the colon was resected from anesthetized rats, which were then euthanized by decapitation. Weights of excised colon and spleen were measured, and the colons photographed for scoring of gross morphologic damage according to Table 1 before division into 3 parts. The segment of colon 1 cm from the cecum was fixed in 10% formalin. Other segments were immediately frozen on dry ice. Inflammation was defined as regions of hyperemia and bowel wall thickening. […] [table] For this assay, 5 treatment groups were set up as follows: • Group A (n=3). intracolonic saline with subcutaneous treatment of saline; • Group B (n=8). subcutaneous treatment of saline prior to induction of colitis by 30 mg/kg TNBS; • Group C (n=10). […] Positive control—intramuscular injection of Depo-Medrol 600 μg/kg 60 min prior to induction of colitis by 30 mg/kg TNBS; • Group E (n=10). Positive control, 5-amino salicylic acid (Sigma) suspension at 200 mg/kg intracolonic administration in 0.5 mL saline, 60 min before induction of colitis and daily thereafter. Results

Row | Compound | gross morphologic damage score index | spleen weight (systemic immune suppression)
1 | CC(=O)OCC(=O)[C@@]1(O)CC[C@H]2[C@@H]3C[C@H](C)C4=CC(=O)C=C[C@]4(C)[C@H]3[C@@H](O)C[C@@]21C [Depo-Medrol] | 1.12±0.26 | decreased
2 | Nc1ccc(O)c(C(=O)O)c1 [5-ASA, 5-aminosalicylic acid] | 1.62±0.62 | not decreased
